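How tested: cells in 96-well plates exposed to compound for 48 hours at five concentrations. TGI is the concentration that stops growth completely.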
Tests used:
Assay in all cases: NCI tumour cell line growth inhibition, 48 h
786-0 renal = tested on: 786-0 renal
A498 renal = tested on: A498 renal
A549 NSCLC = tested on: A549 NSCLC
ACHN renal = tested on: ACHN renal
CAKI-1 renal = tested on: CAKI-1 renal
CCRF-CEM leukemia = tested on: CCRF-CEM leukemia
COLO 205 colon = tested on: COLO 205 colon
DLD-1 colon = tested on: DLD-1 colon
DMS 114 small cell lung = tested on: DMS 114 small cell lung
DMS 273 small cell lung = tested on: DMS 273 small cell lung
EKVX NSCLC = tested on: EKVX NSCLC
HCC-2998 colon = tested on: HCC-2998 colon
HCT-116 colon = tested on: HCT-116 colon
HCT-15 colon = tested on: HCT-15 colon
HOP-18 NSCLC = tested on: HOP-18 NSCLC
HOP-62 NSCLC = tested on: HOP-62 NSCLC
HT29 colon = tested on: HT29 colon
IGROV1 ovarian = tested on: IGROV1 ovarian
K-562 leukemia = tested on: K-562 leukemia
KM12 colon = tested on: KM12 colon
KM20L2 colon = tested on: KM20L2 colon
LOX IMVI melanoma = tested on: LOX IMVI melanoma
LXFL 529 NSCLC = tested on: LXFL 529 NSCLC
M14 melanoma = tested on: M14 melanoma
M19-MEL melanoma = tested on: M19-MEL melanoma
MALME-3M melanoma = tested on: MALME-3M melanoma
MOLT-4 leukemia = tested on: MOLT-4 leukemia
NCI-H23 lung = tested on: NCI-H23 lung
NCI-H460 lung = tested on: NCI-H460 lung
NCI-H522 lung = tested on: NCI-H522 lung
OVCAR-3 ovarian = tested on: OVCAR-3 ovarian
OVCAR-4 ovarian = tested on: OVCAR-4 ovarian
OVCAR-5 ovarian = tested on: OVCAR-5 ovarian
OVCAR-8 ovarian = tested on: OVCAR-8 ovarian
RXF 393 renal = tested on: RXF 393 renal
RXF-631 renal = tested on: RXF-631 renal
SF-268 CNS = tested on: SF-268 CNS
SF-295 CNS = tested on: SF-295 CNS
SF-539 CNS = tested on: SF-539 CNS
SK-MEL-2 melanoma = tested on: SK-MEL-2 melanoma
SK-MEL-28 melanoma = tested on: SK-MEL-28 melanoma
SK-MEL-5 melanoma = tested on: SK-MEL-5 melanoma
SK-OV-3 ovarian = tested on: SK-OV-3 ovarian
SN12C renal = tested on: SN12C renal
SNB-19 CNS = tested on: SNB-19 CNS
SNB-75 CNS = tested on: SNB-75 CNS
SNB-78 CNS = tested on: SNB-78 CNS
SW-620 colon = tested on: SW-620 colon
TK-10 renal = tested on: TK-10 renal
U251 CNS = tested on: U251 CNS
UACC-257 melanoma = tested on: UACC-257 melanoma
UACC-62 melanoma = tested on: UACC-62 melanoma
UO-31 renal = tested on: UO-31 renal
XF 498 CNS = tested on: XF 498 CNS
HL-60(TB) leukemia = tested on: HL-60(TB) leukemia
NCI-H226 lung = tested on: NCI-H226 lung
RPMI-8226 leukemia = tested on: RPMI-8226 leukemia

Work on `O=S(O)CCCCSSCCCCS(=O)(O)=S` yielded a TGI (786-0 renal) greater than 100 µM, a TGI (A498 renal) greater than 100 µM and a TGI (A549 NSCLC) greater than 100 µM. It also gave a TGI (ACHN renal) greater than 100 µM, a TGI (CAKI-1 renal) greater than 100 µM and a TGI (CCRF-CEM leukemia) greater than 100 µM. For the same compound, the TGI (COLO 205 colon) was greater than 100 µM, the TGI (DLD-1 colon) was greater than 100 µM and the TGI (DMS 114 small cell lung) was greater than 100 µM. It also gave a TGI (DMS 273 small cell lung) greater than 100 µM, a TGI (EKVX NSCLC) of 88.6 µM and a TGI (HCC-2998 colon) greater than 100 µM. The TGI (HCT-116 colon) was greater than 100 µM, the TGI (HCT-15 colon) was greater than 100 µM and the TGI (HOP-18 NSCLC) was greater than 100 µM. For the same compound, the TGI (HOP-62 NSCLC) was greater than 100 µM, the TGI (HT29 colon) was greater than 100 µM and the TGI (IGROV1 ovarian) was greater than 100 µM. For the same compound, the TGI (K-562 leukemia) was greater than 100 µM, the TGI (KM12 colon) was greater than 100 µM and the TGI (KM20L2 colon) was greater than 100 µM. It also gave a TGI (LOX IMVI melanoma) greater than 100 µM, a TGI (LXFL 529 NSCLC) of 61.2 µM and a TGI (M14 melanoma) of 32.1 µM. It also gave a TGI (M19-MEL melanoma) greater than 100 µM, a TGI (MALME-3M melanoma) greater than 100 µM and a TGI (MOLT-4 leukemia) greater than 100 µM. It also gave a TGI (NCI-H23 lung) greater than 100 µM, a TGI (NCI-H460 lung) greater than 100 µM and a TGI (NCI-H522 lung) of 65.6 µM. For the same compound, the TGI (OVCAR-3 ovarian) was greater than 100 µM, the TGI (OVCAR-4 ovarian) was 79 µM and the TGI (OVCAR-5 ovarian) was greater than 100 µM. The TGI (OVCAR-8 ovarian) was greater than 100 µM, the TGI (RXF 393 renal) was greater than 100 µM and the TGI (RXF-631 renal) was greater than 100 µM. It also gave a TGI (SF-268 CNS) greater than 100 µM, a TGI (SF-295 CNS) greater than 100 µM and a TGI (SF-539 CNS) greater than 100 µM. It also gave a TGI (SK-MEL-2 melanoma) greater than 100 µM, a TGI (SK-MEL-28 melanoma) greater than 100 µM and a TGI (SK-MEL-5 melanoma) of 30.8 µM. It also gave a TGI (SK-OV-3 ovarian) greater than 100 µM, a TGI (SN12C renal) greater than 100 µM and a TGI (SNB-19 CNS) greater than 100 µM. It also gave a TGI (SNB-75 CNS) of 92.1 µM, a TGI (SNB-78 CNS) greater than 100 µM and a TGI (SW-620 colon) greater than 100 µM. It also gave a TGI (TK-10 renal) greater than 100 µM, a TGI (U251 CNS) greater than 100 µM and a TGI (UACC-257 melanoma) greater than 100 µM. It also gave a TGI (UACC-62 melanoma) of 70.1 µM, a TGI (UO-31 renal) greater than 100 µM and a TGI (XF 498 CNS) of 33.2 µM.

`C=CCCC12CCCC(=O)C1Sc1ccc3ccccc3c12` (stereo not given) gave a TGI (786-0 renal) of 48.2 µM, a TGI (A498 renal) of 26.1 µM and a TGI (A549 NSCLC) of 24.5 µM. The TGI (ACHN renal) was 92.3 µM, the TGI (CAKI-1 renal) was 26.4 µM and the TGI (CCRF-CEM leukemia) was 53.8 µM. It also gave a TGI (COLO 205 colon) of 29.1 µM, a TGI (DLD-1 colon) of 71.5 µM and a TGI (DMS 273 small cell lung) of 23.6 µM. It also gave a TGI (EKVX NSCLC) of 64.2 µM, a TGI (HCC-2998 colon) of 34.2 µM and a TGI (HCT-15 colon) of 37.5 µM. For the same compound, the TGI (HL-60(TB) leukemia) was 44.6 µM, the TGI (HOP-18 NSCLC) was 61.2 µM and the TGI (HOP-62 NSCLC) was 53.5 µM. The TGI (HT29 colon) was 67.2 µM, the TGI (IGROV1 ovarian) was greater than 100 µM and the TGI (K-562 leukemia) was greater than 100 µM. It also gave a TGI (KM12 colon) of 31.2 µM, a TGI (LOX IMVI melanoma) of 26.5 µM and a TGI (LXFL 529 NSCLC) of 33.2 µM. The TGI (M14 melanoma) was 31.1 µM, the TGI (M19-MEL melanoma) was greater than 100 µM and the TGI (MALME-3M melanoma) was 52.7 µM. It also gave a TGI (MOLT-4 leukemia) of 39.6 µM, a TGI (NCI-H226 lung) of 36.2 µM and a TGI (NCI-H23 lung) of 55.7 µM. It also gave a TGI (NCI-H522 lung) of 35 µM, a TGI (OVCAR-3 ovarian) of 29 µM and a TGI (OVCAR-4 ovarian) greater than 100 µM. For the same compound, the TGI (OVCAR-5 ovarian) was 93.5 µM, the TGI (OVCAR-8 ovarian) was greater than 100 µM and the TGI (RPMI-8226 leukemia) was 42.9 µM. It also gave a TGI (RXF 393 renal) of 26.2 µM, a TGI (RXF-631 renal) of 34 µM and a TGI (SF-268 CNS) greater than 100 µM. For the same compound, the TGI (SF-295 CNS) was 51.2 µM, the TGI (SF-539 CNS) was 28.5 µM and the TGI (SK-MEL-2 melanoma) was 32.8 µM. It also gave a TGI (SK-MEL-28 melanoma) greater than 100 µM, a TGI (SK-OV-3 ovarian) of 66.4 µM and a TGI (SN12C renal) of 54.4 µM. For the same compound, the TGI (SNB-19 CNS) was 96 µM, the TGI (SNB-75 CNS) was 82.9 µM and the TGI (SNB-78 CNS) was 60.8 µM. For the same compound, the TGI (SW-620 colon) was 58.6 µM, the TGI (TK-10 renal) was 51.2 µM and the TGI (U251 CNS) was 33.6 µM. It also gave a TGI (UACC-257 melanoma) of 55.7 µM, a TGI (UACC-62 melanoma) of 40 µM and a TGI (UO-31 renal) of 42.5 µM.
